Reference: patent US9145472B2, “Charge reversible polymers” (Wyoming Research Products Center, priority 2006, dated 2015)

Tests used:
[1] = test system: nuclear DNA; details: cited from earlier work
[2] = pH-dependent hydrolysis of model amides monitored by 1H-NMR; format: physicochemical
Description: Model compound synthesis and hydrolytic kinetics measurement (Scheme 4—FIG. 4): Briefly, N,N-diethylamine (415 μL, 4 mmol) and 1,2-cis-cyclohexanedicarboxylic anhydride (617 mg, 4 mmol) were dissolved in 10 mL dichloride methane. The reaction was kept at room temperature for 2 h with stirring. The solvent was then removed by rotary evaporation to obtain the raw product. The raw product was purified by recrystallizing from benzene to get 2-[(diethylamino)carbonyl]cyclohexanecarboxylic acid. 1H NMR (400 MHz, CDCl3): δ (ppm): 3.60-3.22 (m), 2.77 (m), 2.51-2.45 (m), 1.87-1.66 (m), 1.58-1.46 (m), 1.49-1.39 (m), 1.28 (q), 1.17 (t). Similarly, 2-[(isopropylamino)carbonyl]cyclohexanecarboxylic acid was synthesized. 1H NMR (400 MHz, CDCl3): δ (ppm): 3.83 (q), 2.73 (q), 2.64 (q), 1.87 (m), 1.79 (m), 1.64 (m), 1.45 (m), 1.33 (m), 1.01 (d).
The hydrolysis of the model compounds was monitored by 1H-NMR. Briefly, 2-[(isopropylamino)carbonyl]cyclohexanecarboxylic acid (10 mg) was dissolved in 2 mL D2O. Sodium carbonate was used to adjust the solution pH to 5.0, 6.0 or 7.4 at 37° C. At predesigned time intervals, 1HNMR spectra of the solution were measured on a Bruker Avance DRX-400 spectrometer. The hydrolysis was monitored by measuring the integrations of the peaks at 3.77-3.9 ppm (CH in the amide of propan-2-amine) and the 3.3-3.5 ppm (CH in the propan-2-amine).
The hydrolysis of model amides of primary and secondary amines made from cis-1,2-cyclohexanedicarboxylic anhydride was tested at different pH values.

Row | SMILES | molecules that enter the cell that actually bind the nuclear DNA [1] | hydrolysis of the amide ([2]; pH 5, 37° C.) | hydrolysis of the amide ([2]; pH 6, 37° C.) | extent of amide hydrolysis ([2]; pH 7.4, after 60 h) [%] | hydrolysis of the amide ([2]; pH 7.4)
1 | N.N.[Cl][Pt][Cl] [cisplatin] | less than 1% |  |  |  | 
2 | CCN(CC)C(=O)C1CCCCC1C(=O)O (stereo not shown) [amide of the secondary amine, 2-[(diethylamino)carbonyl]cyclohexanecarboxylic acid] |  | almost instantly hydrolyzed | slightly slower | 50 | 
3 | CC(C)NC(=O)C1CCCCC1C(=O)O (stereo not shown) [amide of the primary amine, 2-[(isopropylamino)carbonyl]cyclohexanecarboxylic acid] |  | hydrolyzed more slowly | hydrolyzed more slowly |  | did not hydrolyze
